Consider 1 molecule from paper PMC9962921, “Interlaboratory Study to Evaluate a Testing Protocol for the Safety of Food Packaging Coatings” (Toxics, 2023).

Where two headings read alike, the source gives them in different places.

Test [1] concerns the target T1, Aryl hydrocarbon Receptor (AhR) (Rattus norvegicus, UniProt P41738).
T1 sequence (P41738 10-853): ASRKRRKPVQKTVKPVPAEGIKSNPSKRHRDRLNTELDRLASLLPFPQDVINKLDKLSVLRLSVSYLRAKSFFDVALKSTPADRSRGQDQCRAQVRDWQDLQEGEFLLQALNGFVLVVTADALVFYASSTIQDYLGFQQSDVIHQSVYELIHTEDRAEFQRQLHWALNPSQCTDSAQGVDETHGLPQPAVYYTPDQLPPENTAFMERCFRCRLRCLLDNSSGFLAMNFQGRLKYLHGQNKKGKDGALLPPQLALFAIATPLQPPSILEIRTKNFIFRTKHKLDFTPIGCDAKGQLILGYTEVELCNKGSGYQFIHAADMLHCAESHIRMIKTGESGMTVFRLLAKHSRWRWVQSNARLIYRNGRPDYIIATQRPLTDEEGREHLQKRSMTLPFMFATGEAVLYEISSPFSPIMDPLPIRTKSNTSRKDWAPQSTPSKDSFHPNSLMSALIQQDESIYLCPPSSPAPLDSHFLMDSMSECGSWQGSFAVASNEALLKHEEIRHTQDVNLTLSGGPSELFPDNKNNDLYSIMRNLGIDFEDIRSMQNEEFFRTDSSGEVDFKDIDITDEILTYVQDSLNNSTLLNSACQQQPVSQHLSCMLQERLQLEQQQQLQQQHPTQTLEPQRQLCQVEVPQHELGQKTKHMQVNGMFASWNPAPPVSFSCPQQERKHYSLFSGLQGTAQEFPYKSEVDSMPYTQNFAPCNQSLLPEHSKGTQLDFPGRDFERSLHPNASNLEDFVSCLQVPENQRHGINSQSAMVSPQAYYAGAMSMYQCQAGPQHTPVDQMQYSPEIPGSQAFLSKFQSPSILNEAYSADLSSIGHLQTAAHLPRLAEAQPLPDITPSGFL
In words: AhR (PAH) CALUX reporter gene assay. To be noted: EC50 AhR reference compound (mean). The protocol:
Briefly, cells were seeded in a 96-well plate (VWR, Dietikon, Switzerland) and incubated for 24 h at 37 °C, 5% CO2 and 100% humidity. […] In addition, a serial dilution of each of the different migrates were exposed in triplicates. After 24 h of exposure for cytotoxicity, ERα, AR and 4 h of exposure for poly-aromatic hydrocarbons (PAH) of exposure, the luciferase activity is measured with a luminometer plate reader (Mithras, Berthold, Germany).
Relative luminescence units obtained were processed as described by proprietary calculation template (BDS) (Amsterdam, The Netherlands). Receptor-binding activation was quantified as the amount of relative luciferase units (RLU) emitted after samples’ exposure. The signal is proportional to the amount of ligand-specific receptor-binding activation. After normalization to solvent control (DMSO) the percentage of relative induction (RI) or relative inhibition (RInh) was calculated for the selected nuclear receptors and the cell viability. The samples were then expressed as percentage of the maximum reference compound response. All dose responses and dilutions were performed in technical triplicates. […] For the PAH CALUX bioassay, the threshold level was set as 10%. […] Dose–response obtained between laboratories C and D was compared.

For test [2], the target named is T1, Aryl hydrocarbon Receptor (AhR). The conditions noted are these: read-out: EC50 standard range, AhR reference compound; historical range; ref BDS BioDetection Systems historical data; cited from earlier work.

What is called EC50 is the concentration giving half of the maximal effect. On to `c1ccc2c(c1)cc1ccc3cccc4ccc2c1c34` [Benzo(a)pyrene, benzo[a]pyrene], for which the results for the EC50 in test [1] (LAB C), in test [1] (LAB D) and in test [2] were 3.3 nM, 7.2 nM and 1.6 to 16 nM, respectively.
